Assay results as given in patent US20210379063A1, “ORAL AMINODIHYDROPHTHALAZINEDIONE COMPOSITIONS AND THEIR USE IN THE TREATMENT OF NON-VIRAL HEPATITIS” (Immunopharma Plus D.O.O., priority 2018, published 2021).
Values joined by “and” are separate entries in the source; they are usually repeats but may differ in a detail not shown here. Identical values can stand only once. Like-named read-outs stand apart in the source and are kept apart here. Marks after values point to notes of the source that are not given here.

Columns and labels:
[1] = test system: porcine large intestine (colon); experiment: Porcine large intestine permeability, Franz cell; details: for concentration in receptor comp, large intestine, AVG / concentration in receptor compartment, large intestine: 10 mM donor solution; for concentration in receptor compartment, large intestine: single chambers
Experimental: The intestine was prepared so the mucous side will be facing the donor compartment.

[2] = test system: toxic hepatitis caused by Acetaminophen; details: for ALT / AST / AST/ALT / GTP / Biochemiluminescence of blood plasma (BCL, quant): Acetaminophen + Tamerit
Experimental: The experiment was carried out on 45 adult male outbred white rats weighing 288.5±12.9 g, in accordance with the recommendations of the international ethics committees on the humane treatment of laboratory animals (EU Council Directive 86/609 EEC dated Nov. 24, 1986). To create an experimental model, an aqueous solution of Acetaminophen was administered intragastrically using a probe at a dosage of 110 mg/kg of body weight, which is about 2 times higher than the maximum allowable daily dose in humans. […] The drug was administered intragastrically, using a probe, in the form of an aqueous solution

PHMG poisoning = experiment: Acute hepatitis caused by alcohol substitute PHMG in rats
Experimental: The experiment was carried out on 25 male white outbred rats weighing 200-300 g, in accordance with the recommendations of the international ethics committees on the humane treatment of laboratory animals (EU Council Directive 86/609 EEC dated Nov. 24, 1986). To create an experimental model, an aqueous solution of PHMG was used, which was administered intraperitoneally at a dose of 50 mg/100 g.

[3] = PHMG 3 days + Tamerit intraperitoneally
[4] = PHMG 7 days + Tamerit intraperitoneally

Compound: Nc1cccc2c(=O)[n-][nH]c(=O)c12.[Na+] [Tamerit, aminodihydrophthalazinedione sodium]
- permeability through large intestine tissue, in words [1]: good permeability
- concentration in receptor comp, large intestine, AVG ([1]; 0 min): 0 ng/mL
- concentration in receptor compartment, large intestine ([1]; 0 min): 0 ng/mL
- concentration in receptor comp, large intestine, AVG ([1]; 30 min): 5000 ng/mL
- concentration in receptor comp, large intestine, AVG ([1]; 60 min): 7000 ng/mL
- concentration in receptor comp, large intestine, AVG ([1]; 120 min): 17000 ng/mL
- concentration in receptor comp, large intestine, AVG ([1]; 240 min): 35000 ng/mL
- concentration in receptor compartment, large intestine ([1]; 240 min, sodium): 30600 ng/mL and 25000 ng/mL and 36400 ng/mL and 49000 ng/mL
- concentration in receptor comp, large intestine, AVG ([1]; 360 min): 48000 ng/mL
- concentration in receptor comp, large intestine, AVG ([1]; 720 min): 90000 ng/mL
- time to reach steady state of permeation ([1]; large intestinal tissue): four
- Recovery from donor comp, % ([1]; large intestine, 0 min): 0.00%
- mg in receptor comp ([1]; large intestine, 0 min): 0.000 mg
- Recovery from donor comp, % ([1]; large intestine, 30 min): 0.45%
- mg in receptor comp ([1]; large intestine, 30 min): 0.026 mg
- Recovery from donor comp, % ([1]; large intestine, 60 min): 0.63%
- mg in receptor comp ([1]; large intestine, 60 min): 0.036 mg
- Recovery from donor comp, % ([1]; large intestine, 120 min): 1.46%
- mg in receptor comp ([1]; large intestine, 120 min): 0.084 mg
- Recovery from donor comp, % ([1]; large intestine, 240 min): 3.07%
- mg in receptor comp ([1]; large intestine, 240 min): 0.176 mg
- Recovery from donor comp, % ([1]; large intestine, 360 min): 4.20%
- mg in receptor comp ([1]; large intestine, 360 min): 0.242 mg
- Tamerit Permeability vs Propranolol Permeability ([1]; large intestine, FIG. 11): permeates better than propranolol
- permeation compared with Propranolol ([1]; large intestine, after 4 hours): as good as Propranolol
- ALT ([2]; 3rd day): 17.45 ± 1.3 U/L
- AST ([2]; 3rd day): 23.61 ± 1.2 U/L
- AST/ALT ([2]; 3rd day): 1.35 ± 0.03
- GTP ([2]; 3rd day): 35.8 ± 1.2 U/L
- ALT ([2]; 5th day): 12.2 ± 0.9 U/L
- AST ([2]; 5th day): 15.0 ± 1.0 U/L
- AST/ALT ([2]; 5th day): 1.24 ± 0.01
- GTP ([2]; 5th day): 33.8 ± 0.9 U/L
- ALT ([2]; 7th day): 12.0 ± 0.8 U/L
- AST ([2]; 7th day): 16.01 ± 2.0 U/L
- AST/ALT ([2]; 7th day): 1.33 ± 0.02
- GTP ([2]; 7th day): 30.8 ± 1.8 U/L
- ALT ([2]; 12th day): 18.0 ± 1.8 U/L
- AST ([2]; 12th day): 22.1 ± 1.5 U/L
- AST/ALT ([2]; 12th day): 1.22 ± 0.04
- GTP ([2]; 12th day): 29.4 ± 1.5 U/L
- Biochemiluminescence of blood plasma (BCL, quant) ([2]; 3 days): 213.0 ± 4.0 quant
- Biochemiluminescence of blood plasma (BCL, quant) ([2]; 12 days): 215.6 ± 5.0 quant
- signs of toxic hepatitis ([2]; rats treated with Tamerit intragastrically): less pronounced
- degree of hepatocyte destruction (PHMG poisoning; 7th day after PHMG): minimal
- ALT, U/L (PHMG poisoning; PHMG 3rd day + Tamerit): 5.7 ± 1.9 U/L
- AST, U/L (PHMG poisoning; PHMG 3rd day + Tamerit): 11.3 ± 0.6 U/L
- GTP, U/L (PHMG poisoning; PHMG 3rd day + Tamerit): 17.5 ± 2.0 U/L
- ALT, U/L (PHMG poisoning; PHMG 7th day + Tamerit): 8.1 ± 0.2 U/L
- AST, U/L (PHMG poisoning; PHMG 7th day + Tamerit): 12.1 ± 0.3 U/L
- GTP, U/L (PHMG poisoning; PHMG 7th day + Tamerit): 26.0 ± 3.4 U/L
- Binuclear cells, % (PHMG poisoning; [3]): 65.12 ± 0.14 %
- Mitotic index, % (PHMG poisoning; [3]): 38.26 ± 0.18 %
- Binuclear cells, % (PHMG poisoning; [4]): 61.18 ± 0.24 %
- Mitotic index, % (PHMG poisoning; [4]): 45.6 ± 0.14* ** %
